Inconclusive results are not listed. Activity calls are given as the source filed them. No rule for the calls is given here; tested in MIN6 cells.
Assay: cell-permeable autofluorescent compounds in GFP channel, dose response, artefact control, imaging, high-content imaging (AID 2124);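 also: cells exposed to compound for 48 hours before fixing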
Details: cells, GFP-channel autofluorescence, high-content imaging, at 10 µM; for z-score: stronger effect = higher value

Clc1ccc2oc(-c3ccccn3)nc2c1
z-score: -0.24 (inactive)
cell count: 2940 cells

Cc1ccc(S(=O)(=O)c2cccc(S(=O)(=O)N3CCCC3)c2)cc1S(=O)(=O)N1CCCC1
z-score: -0.33 (inactive)
cell count: 2360 cells

CN(C)C(=O)C1C2NC(=S)N(c3cccc(Cl)c3)C1(C)Oc1ccc(Cl)cc12 (stereo not drawn)
z-score: -0.39 (inactive)
cell count: 3180 cells

COc1cc(N2CCCC2)c(OC)cc1/C=C1/NC(=S)NC1=O
z-score: 0.59
cell count: 2940 cells

Cc1ccc(C2CC(=O)NC(SCc3ccccc3)=C2C#N)o1 (stereo not drawn)
z-score: -0.33 (inactive)
cell count: 3270 cells

CCC(=O)OCC(=O)c1c(N)n(Cc2ccccc2)c(=O)n(C)c1=O
z-score: -0.33 (inactive)
cell count: 2890 cells

Cc1[nH]c2ccccc2c1/C=N/Nc1ccc([N+](=O)[O-])cc1S(=O)(=O)Nc1ccc(Cl)cc1
z-score: 0.35
cell count: 2050 cells

O=C1/C(=N\S(=O)(=O)c2cccs2)C([n+]2cccc(Cc3ccccc3)c2)=C([O-])c2ccccc21
z-score: -0.31 (inactive)
cell count: 307 cells

CCOc1ccc2[nH]c(=O)c(CN(CCc3ccccc3)C(=O)N3CCOCC3)cc2c1
z-score: -0.26 (inactive)
cell count: 3100 cells

CCOc1ccc(-c2c(C#N)c(N)nc3sc(C(=O)c4ccccc4)c(N)c23)cc1
z-score: 0.98
cell count: 3090 cells

CC[n+]1c(/C=C/C=C/N(C(C)=O)c2ccccc2)sc2cc(OC)ccc21
z-score: 7.8
cell count: 111 cells

C=CCNC(=O)/C(=C\c1ccc(Br)cc1)NC(=O)c1ccccc1OC
z-score: -0.39 (inactive)
cell count: 3390 cells

Cc1ccc(-n2c(O)c(/C=N/NC(=O)C3COc4ccccc4O3)c3ccccc3c2=O)cc1 (stereo not drawn)
z-score: -0.25 (inactive)
cell count: 2870 cells

C1=C(c2ccccc2)Nc2nnnn2C1
z-score: -0.26 (inactive)
cell count: 3170 cells

CCN1C=CC2=C(C#N)C(N)C(C#N)(C#N)C(c3ccccc3C(F)(F)F)C2C1 (stereo not drawn)
z-score: 0.77
cell count: 2720 cells

N#C/C(=C/c1ccc(N2CCOCC2)o1)c1ccc(Br)cc1
z-score: 0.24
cell count: 555 cells

OC(COc1cccc2ccccc12)CN1CCN(c2ccccc2Cl)CC1 (stereo not drawn)
z-score: -0.39 (inactive)
cell count: 3270 cells

Cc1noc(C)c1S(=O)(=O)N1CCC(C(=O)N2CCN(C3CCCC3)CC2)CC1
z-score: -0.33 (inactive)
cell count: 2760 cells

CCN1C(=O)/C(=C/C=C2\N(CC)c3cc(S(=O)(=O)N(C)C)ccc3N2c2ccccc2)SC1=S
z-score: 0.11
cell count: 2840 cells

CCOCCCNc1nc2c(C)cccn2c(=O)c1/C=C1\SC(=S)N(CC(C)C)C1=O
z-score: -0.38 (inactive)
cell count: 2900 cells

COCCCNc1c2c3c(cccc3[nH]c1=O)C(=O)c1ccccc1-2
z-score: 1.79
cell count: 2800 cells

COc1ccc(N(CCN2C(=O)c3ccccc3C2=O)C(=O)c2cccc([N+](=O)[O-])c2)cc1
z-score: -0.25 (inactive)
cell count: 2790 cells

CCCCC1=CC2=C(c3ccco3)C(=O)C(C)(OC(=O)c3ccc(OC)cc3)C(=O)C2=CN1CC(C)C (stereo not drawn)
z-score: -0.39 (inactive)
cell count: 2870 cells

Cc1c(C(c2ccc([N+](=O)[O-])cc2)c2c(C)n(C)n(-c3ccccc3)c2=O)c(=O)n(-c2ccccc2)n1C
z-score: -0.39 (inactive)
cell count: 3040 cells

CC(NC(=O)/C(C#N)=C1\N=C(NC(=O)c2ccco2)c2ccccc21)c1ccccc1 (stereo not drawn)
z-score: -0.32 (inactive)
cell count: 2760 cells

O=C(CSc1ccc(-c2ccccc2)nn1)NCC1CCCO1 (stereo not drawn)
z-score: -0.38 (inactive)
cell count: 2970 cells

CN(C)CCOCCOc1ccccc1-c1ccccc1
z-score: -0.33 (inactive)
cell count: 3130 cells

CCOc1ccc(NC2=NCC(=O)N2Cc2cccs2)cc1
z-score: -0.38 (inactive)
cell count: 3020 cells

CCN(CC)c1ccc2cc(-c3nnc(-c4ccccc4)o3)c(=O)oc2c1
z-score: 1.33
cell count: 3220 cells

Cc1ccc(-n2c(Cc3cccs3)nnc2SCC(=O)OC(C)C)cc1
z-score: -0.38 (inactive)
cell count: 2980 cells

N#C/C(=C\c1ccc(N2CCOCC2)o1)c1nc2ccccc2[nH]1
z-score: 0.96
cell count: 2400 cells

CC(=O)Cc1cc(O)c2ccccc2c1OC(=O)c1ccc(Br)cc1
z-score: -0.26 (inactive)
cell count: 2650 cells

Nc1c(C(=O)c2cccs2)sc2nsc(SCCN3CCCCC3)c12
z-score: 0.3
cell count: 2930 cells

CCCCNC(=S)NC(=O)c1ccc(Cl)cc1Cl
z-score: -0.39 (inactive)
cell count: 3500 cells

CCN(CC)c1ccc(/C=C(/C#N)c2nc3ccc(C)cc3[nH]2)c(OC(C)C)c1
z-score: 2.57
cell count: 1480 cells

CCOc1cc(N(CC)CC)ccc1/C=C(/C#N)c1nc2ccccc2[nH]1
z-score: 1.08
cell count: 1870 cells

COc1ccc(NC(=O)c2sc3nc(-c4cccnc4)ccc3c2N)cc1
z-score: -0.3 (inactive)
cell count: 2880 cells

CCCn1nc2cc(C(=O)NCc3ccccc3)ccc2c1OCC
z-score: -0.33 (inactive)
cell count: 3340 cells

Cc1ccccc1-c1nnc(-c2ccc(Cl)cc2)o1
z-score: -0.26 (inactive)
cell count: 2820 cells

O=C(Nc1nnc(-c2ccccc2)o1)Nc1ccccc1Cl
z-score: -0.39 (inactive)
cell count: 2750 cells

Cc1ccccc1C(=O)N1CCc2ccccc2C1
z-score: -0.39 (inactive)
cell count: 3270 cells

N#Cc1ccc(-c2ccc(Cl)cc2)nc1SCC(=O)c1cccc(Cl)c1
z-score: -0.27 (inactive)
cell count: 3130 cells

O=C(c1cccs1)c1no[n+]([O-])c1C(=O)c1cccs1
z-score: -0.31 (inactive)
cell count: 586 cells

COC(=O)c1cnn2c(C(F)(F)F)cc(-c3ccc(F)cc3)nc12
z-score: -0.33 (inactive)
cell count: 2980 cells

N#C/C(=C/c1ccc(N2CCCCC2)o1)C(=O)NCCc1c[nH]c2ccccc12
z-score: 0.47
cell count: 3410 cells

Cc1ccccc1-n1ncc2c(SCC(=O)NCc3cccs3)ncnc21
z-score: -0.38 (inactive)
cell count: 2670 cells

Cc1cc(C)c2nc(NNC(=O)c3cc(-c4cccs4)nc4ccccc34)sc2c1
z-score: -0.33 (inactive)
cell count: 2740 cells

CCN1/C(=C/c2cc[n+](CCCS(=O)(=O)[O-])c3ccccc23)Sc2ccccc21
z-score: -0.24 (inactive)
cell count: 1390 cells

CC(=O)OC(C(=O)NCc1ccc(F)cc1)c1ccccn1 (stereo not drawn)
z-score: -0.39 (inactive)
cell count: 2840 cells

O=C(NCc1ccc(F)cc1)C1CCCN(S(=O)(=O)c2cccnc2)C1 (stereo not drawn)
z-score: -0.33 (inactive)
cell count: 3070 cells

Cc1ccccc1NCC(=O)N/N=C/c1c[nH]c2ccccc12
z-score: -0.33 (inactive)
cell count: 2720 cells

N#C/C(=C\c1ccc(-c2ccc(C(=O)O)cc2)o1)c1nc2ccccc2[nH]1
z-score: -0.29 (inactive)
cell count: 3280 cells

Cc1noc(/C=C/c2ccc(-c3ccccc3Cl)o2)c1[N+](=O)[O-]
z-score: 0.5
cell count: 3160 cells

CCN(CC)c1ccc(/C=N/c2sc3c(c2C#N)C2CCN3CC2)c(O)c1
z-score: 1.45
cell count: 2490 cells

CCOc1ccc(NC(=O)Cn2c(=O)oc3ccccc32)cc1
z-score: -0.25 (inactive)
cell count: 3070 cells

COc1ccc(NC(=O)c2[nH]c(C)c(C(C)=O)c2C)cc1Cl
z-score: -0.33 (inactive)
cell count: 3410 cells

CC(=O)C(=Cc1cn(-c2ccccc2)nc1-c1ccccc1)C(C)=O
z-score: -0.32 (inactive)
cell count: 3020 cells

CCc1ccc(NC(=O)c2cc(C(C)C)on2)cc1
z-score: -0.39 (inactive)
cell count: 3050 cells

CCCCN1C(=O)/C(=C/C=C2\Oc3ccccc3N2CC)SC1=S
z-score: 1.42
cell count: 3450 cells

Cc1ccc(Nc2nc(Cl)c(C=O)s2)cc1Cl
z-score: -0.27 (inactive)
cell count: 2840 cells

C/C(=N\S(=O)(=O)c1ccc(C)cc1)N1CCN(S(=O)(=O)c2ccccc2)C1
z-score: -0.38 (inactive)
cell count: 3140 cells

CCN1/C(=C/c2ccc3cc(C)ccc3[n+]2CC)Sc2ccccc21
z-score: 1.64
cell count: 190 cells

NS(=O)(=O)c1cccc2cccnc12
z-score: -0.33 (inactive)
cell count: 3060 cells

COC(=O)[C@@H](NC(=O)Nc1cccc(OC)c1)C(C)C
z-score: -0.39 (inactive)
cell count: 3030 cells

Nc1nc(-c2ccc(Cl)cc2)c(N=Nc2ccc(S(=O)(=O)N3CCOCC3)cc2)s1
z-score: -0.32 (inactive)
cell count: 2990 cells

Cc1cc(/C=C2\SC(=S)NC2=O)c(C)n1C1CC1
z-score: -0.3 (inactive)
cell count: 3040 cells

CCn1nnc2sc3c(c2c1=O)CCC(C)C3 (stereo not drawn)
z-score: -0.39 (inactive)
cell count: 3170 cells

CN(C)/C=C1/Nc2ccccc2C1=O
z-score: -0.36 (inactive)
cell count: 3060 cells

Oc1c(/C=C/C=C/C=Nc2ccccc2)sc(=S)n1Cc1ccccc1
z-score: -0.33 (inactive)
cell count: 2740 cells

Cc1cccc(OCCNc2nc3c(c(=O)n(C)c(=O)n3C)n2C)c1
z-score: -0.33 (inactive)
cell count: 3060 cells

COC(=O)c1ccc(COc2ccc3c(C)c(C)c(=O)oc3c2)o1
z-score: -0.33 (inactive)
cell count: 3400 cells

CCOC(=O)c1ccc(CSc2nnc(-c3ccncc3)n2N)cc1
z-score: -0.33 (inactive)
cell count: 3110 cells

CCN1CCN(C2=CC3=CC(=C(C#N)C#N)CCC3CC2)CC1 (stereo not drawn)
z-score: 1.63
cell count: 3180 cells

Cc1cc2nc3c(=O)n(Cc4ccccc4)c(=O)[nH]c3nc2cc1N
z-score: -0.33 (inactive)
cell count: 2710 cells

COCCN1CN(S(=O)(=O)c2ccccc2)c2nc3ccccc3nc21
z-score: -0.38 (inactive)
cell count: 3380 cells

COc1cccc(/C=N/NC(=O)c2oc3nc(-c4ccccc4)cc(-c4ccco4)c3c2N)c1
z-score: -0.32 (inactive)
cell count: 3030 cells

Cc1ccc(-n2c3c(c(=O)[nH]c2=O)C(C(F)(F)F)(C(F)(F)F)NC(=O)N3)cc1
z-score: -0.33 (inactive)
cell count: 2850 cells

O=c1c([N+](=O)[O-])cccn1Cc1ccc(F)cc1Cl
z-score: -0.38 (inactive)
cell count: 2960 cells

CC1CCCC(C)N1C(=O)CSc1nnc(-c2cccs2)o1 (stereo not drawn)
z-score: -0.33 (inactive)
cell count: 2440 cells

Reference: PubChem BioAssay AID2124 (Sanford-Burnham Center for Chemical Genomics, 2009)
